Data: US9745357B2, “Peptides used for treating cancers and, in particular, chronic lymphoid leukaemia” (Centre National de la Recherche Scientifique, priority 2009, dated 2017)

Experiments:
[1] = tested on: B lymphocytes from patients suffering from chronic lymphoid leukemia (CLL); details: for cell effect CLL 40 (survival): 4 hours of culture, cells not labeled with annexin or propidium iodide; for effect of the peptide on cell mortality, in words (relative to A1 WT IRS): 40 μM, 4 hours, FIG. 9
Description: Peripheral blood B lymphocytes taken from patients suffering from CLL and then purified on a Ficoll cushion and placed in culture are incubated in the presence of […] of the peptides described for FIG. 2. The percentage cell survival after 4 hours (gray column) or 24 hours (white column) of culture corresponds to the percentage of cells labeled neither with annexin nor with propidium iodide, evaluated by flow cytometry.
The CLL B lymphocytes were obtained from peripheral blood of 18 different patients suffering from chronic lymphoid leukemia. […] The samples were taken in the Brest hospital center, in the hematology department. The blood samples were taken after informing the patients and obtaining their informed consent.
The lymphocytes, mononuclear cells, were isolated from the heparinized peripheral blood samples by Ficoll-Hypaque (LSM 1077 lymphocyte, euro-bio) centrifugation. The red blood cells were lyzed by incubation for 10 min in VersaLyse Lysing Solution (Beckman Coulter). The mononuclear cells are obtained after 2 washes in culture medium (RPMI1640, Gibco BRL).
(§1) The cells were cultured in a culture medium composed either of RPMI 1640 (B lymphocytes) or of DMEM (COS7, HCT116, HGT1, 293, HeLa) containing 10% of FCS (fetal calf serum, 1% of penicillin-streptomycin and 1% of glutamine, Gibco BRL). The cells are distributed in a 24-well plate and cultured at 37° C. in a humid atmosphere under 5% CO2.
(§2) 400 μl of cell suspension (1×10^6 cells/ml) per well were treated for 4 h or 24 h with various concentrations of peptides. The test for activity of the peptides in the presence of emetine (FIG. 6) was carried out by preincubating the cells with 100 μM of emetine for one hour before the addition of peptide.
(§3) After the cells have been washed with PBS, they were analyzed using the Annexin V-FITC IP system according to the supplier's recommendations (Beckman Coulter).
The cells taken from patients suffering from chronic lymphoid leukemia were purified on a Ficoll cushion. […] The cells were placed in culture in RPMI medium in the presence of 10% FCS (fetal calf serum). The peptides were added directly to the culture medium. These peptides comprise the IRS sequence (the amino acid sequence of which is RYIRS) which is known to allow the penetration of peptides into B lymphocytes in culture (Dong et al., 2005). […] The cells which survive the treatment are those which are labeled neither with annexin nor with propidium iodide.

[2] = tested on: control T lymphocytes (patients suffering from hemochromatosis); experiment: Cell survival of control T lymphocytes, annexin/propidium iodide flow cytometry; format: cell-based, human; details: 40 μM peptide, 4 hours of culture, cells not labeled with annexin or propidium iodide
Description: FIG. 7: Activity of the A1WT peptide on cells of lymphocytic, lymphoid, gastric, colonic or renal origin The cells are prepared and placed in culture (see Materials and Methods) and then incubated for 4 H with the A1WT or A1 YALA peptide. The percentage cell survival corresponds to the percentage of cells labeled neither with annexin nor with propidium iodide, evaluated by flow cytometry. The names of the pathological conditions from which the patients from whom the samples are taken are suffering are indicated under the figure. The control T (L.T.) and B (L.B.) lymphocytes are taken from patients suffering from a disease not related to a lymphocytic pathological condition (hemochromatosis).
The control B lymphocytes and T lymphocytes originate from peripheral blood samples from patients suffering from hemochromatosis, provided by the CTS transfusion center in Brest. The B and T lymphocytes were isolated using the Rosett-Sep kit (Stemcell Technologies) according to the supplier's recommendations.
as §1, §2, §3

[3] = tested on: Jok cells (cell line derived from B lymphocytes); experiment: Cell survival of Jok cells, annexin/propidium iodide flow cytometry; format: cell-based, human; details: for cell effect Jok 20 (survival): 20 μM peptide; for cell effect Jok 20 (survival) / cell effect Jok 40 (survival): 4 hours of culture, cells not labeled with annexin or propidium iodide; for cell effect Jok 40 (survival): 40 μM peptide; for effect of the peptide on cell mortality, in words (relative to A1 WT IRS): 4 hours, FIG. 9
Description: The cells are treated as indicated for FIG. 7, with the CLL cells, control T lymphocytes and Jok lymphocytes, which are incubated with the A1 WT IRS peptide and derivatives thereof described in table 1. The Jok cells were incubated either with 20 μM (JOK 20) or with 40 μM (JOK 40) of each of the peptides. In the interests of simplifying the legend, the A1 WT IRS peptide is referred to as “WT”. Likewise, the derivatives thereof are referred to by the name of the mutations (A1 K3I IRS is referred to as “K3I”, for example).
as §1, §2, §3
The peptides were tested on B lymphocytes from patients suffering from chronic lymphoid leukemia, control T lymphocytes, or Jok cells (cell line derived from B lymphocytes). The experiment was repeated three times for each type of cell tested.

[4] = tested on: control T lymphocytes (patients suffering from hemochromatosis); experiment: Cell survival of control T lymphocytes, annexin/propidium iodide flow cytometry; format: cell-based, human; details: 40 μM, 4 hours; FIG. 9
[5] = concentration not given (20 or 40 μM)

Molecule	cell effect CLL 40 (survival) ([1]; 40 μM peptide)	effect of the peptide on cell mortality, in words (relative to A1 WT IRS) [1]	cell effect LT 40 (survival) [2]	cell effect Jok 20 (survival) [3]	cell effect Jok 40 (survival) [3]	effect of the peptide on cell mortality, in words (relative to A1 WT IRS) [3, 5]	effect of the peptide on cell mortality, in words (relative to A1 WT IRS) [4]	effect of the peptide on cell mortality, in words (relative to A1 WT IRS) ([3]; 20 μM)	effect of the peptide on cell mortality, in words (relative to A1 WT IRS) ([3]; 40 μM)	effect on percentage cell survival ([1]; 40 μM peptide, 4 H and 24 H, FIG. 3)	cell survival with emetine alone ([1]; 100 μM emetine, after 4 H of incubation (from 97%), FIG. 6) [%]	action of the peptide on cell survival, in words, cell type not given ([1]; Example 6 (CLL cells, control T lymphocytes, Jok cells))
RRKYGKDFLLRFRYIRS [A1 R6K IRS]	+ (+: survival <25%)	partially decreases the action	+/− (+/−: survival between 25 and 50%)	+/− (+/−: survival between 25 and 50%)	+ (+: survival <25%)	partially decreases the action	partially decreases the action	–	–	–	–	–
RRRYGRDFLLRFRYIRS [A1 K3R IRS]	+ (+: survival <25%)	does not modify the effect	+ (+: survival <25%)	+ (+: survival <25%)	+ (+: survival <25%)	does not modify the effect	does not modify the effect	–	–	–	–	–
KYGRDFLLRFRYIRS [A1 del2 IRS, deletion of the first two amino acids]	− (−: survival >50%)	loss of effect	− (−: survival >50%)	+/− (+/−: survival between 25 and 50%)	+ (+: survival <25%)	–	loss of effect	loss of effect	considerable mortality	–	–	–
RRKYSRDFLLRFRYIRS [A1 G5S IRS]	+ (+: survival <25%)	slightly increases the effect	+ (+: survival <25%)	+ (+: survival <25%)	+ (+: survival <25%)	slightly increases the effect	slightly increases the effect	–	–	–	–	–
GGKYGRDFLLRFRYIRS [A1 R1, 2G IRS]	− (−: survival >50%)	abolishes the effect	− (−: survival >50%)	− (−: survival >50%)	+/− (+/−: survival between 25 and 50%)	–	abolishes the effect	abolishes the effect	only partially decreased	–	–	–
RRKYGHDFLLRFRYIRS [A1 R6H IRS]	+/− (+/−: survival between 25 and 50%)	abolishes the effect	+/− (+/−: survival between 25 and 50%)	+ (+: survival <25%)	+ (+: survival <25%)	the effect is potentiated	abolishes the effect	–	–	–	–	–
RIIYDRHFLLNMRYIRS [BPSg WT IRS, reference compound]	–	–	–	–	–	–	–	–	–	the percentage survival did not decrease	–	–
RRKYGRAFLLFRFYIRS [A1 D7A IRS]	+ (+: survival <25%)	does not modify the action	+ (+: survival <25%)	+ (+: survival <25%)	+ (+: survival <25%)	–	does not modify the action	–	–	–	–	–
CC[C@H]1CN2CCc3cc(OC)c(OC)cc3[C@@H]2C[C@@H]1C[C@H]1NCCc2cc(OC)c(OC)cc21 [emetine, reference compound]	–	–	–	–	–	–	–	–	–	–	82	–
RRKYGRDFLLRWRYIRS [A1 F12W IRS]	+ (+: survival <25%)	does not modify the action	+ (+: survival <25%)	+ (+: survival <25%)	+/− (+/−: survival between 25 and 50%)	does not modify the action	does not modify the action	–	–	–	–	–
RRKYGREFLLRFRYIRS [A1 D7E IRS]	+ (+: survival <25%)	does not modify the action	+ (+: survival <25%)	+ (+: survival <25%)	+ (+: survival <25%)	its effect is potentiated	does not modify the action	–	–	–	–	–
RIKYDRKFLLDRRYIRS [BP2 I3K IRS, reference compound]	− (−: survival >50%)	–	− (−: survival >50%)	− (−: survival >50%)	− (−: survival >50%)	–	–	–	–	–	–	does not confer a better efficacy
RRIYGRDFLLRFRYIRS [A1 K3I IRS]	− (−: survival >50%)	loss of effect	–	+/− (+/−: survival between 25 and 50%)	+ (+: survival <25%)	–	–	partially	–	–	–	–
